Experiments:
[1] = molecular target: RAC-gamma serine/threonine-protein kinase (Homo sapiens, UniProt Q9Y243); assay: Inhibition of PKBgamma (unknown origin)
[2] = molecular target: RAC-beta serine/threonine-protein kinase (Homo sapiens, UniProt P31751); assay: Inhibition of PKBbeta (unknown origin)
[3] = molecular target: T1, Inhibitor of nuclear factor kappa-B kinase subunit beta (Homo sapiens, UniProt O14920); assay: Inhibition of IKKbeta (unknown origin)
T1 sequence (O14920 whole entry): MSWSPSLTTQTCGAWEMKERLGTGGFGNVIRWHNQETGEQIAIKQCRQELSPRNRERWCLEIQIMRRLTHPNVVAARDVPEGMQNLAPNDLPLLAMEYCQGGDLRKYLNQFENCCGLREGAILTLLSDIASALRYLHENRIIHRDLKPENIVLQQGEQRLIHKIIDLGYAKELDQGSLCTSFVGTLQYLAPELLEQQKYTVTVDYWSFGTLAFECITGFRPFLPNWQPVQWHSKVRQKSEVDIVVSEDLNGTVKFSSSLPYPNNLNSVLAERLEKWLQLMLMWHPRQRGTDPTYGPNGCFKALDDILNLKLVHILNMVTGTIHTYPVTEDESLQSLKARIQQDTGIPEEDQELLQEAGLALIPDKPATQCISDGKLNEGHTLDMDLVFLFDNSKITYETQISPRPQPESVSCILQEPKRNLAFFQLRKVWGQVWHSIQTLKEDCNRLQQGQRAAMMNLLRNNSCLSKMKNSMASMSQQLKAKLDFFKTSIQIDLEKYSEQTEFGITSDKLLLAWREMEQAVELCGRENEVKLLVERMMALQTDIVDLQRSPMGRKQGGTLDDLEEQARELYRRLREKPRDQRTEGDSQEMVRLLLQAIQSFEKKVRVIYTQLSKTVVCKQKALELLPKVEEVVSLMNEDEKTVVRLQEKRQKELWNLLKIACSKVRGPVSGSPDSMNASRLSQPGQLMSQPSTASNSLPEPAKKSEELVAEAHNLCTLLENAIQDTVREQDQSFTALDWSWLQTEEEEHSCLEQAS

[4] = molecular target: RAC-alpha serine/threonine-protein kinase (Homo sapiens, UniProt P31749); assay: Inhibition of PKBalpha (unknown origin)
Sequence of RAC-alpha serine/threonine-protein kinase (P31749 whole entry): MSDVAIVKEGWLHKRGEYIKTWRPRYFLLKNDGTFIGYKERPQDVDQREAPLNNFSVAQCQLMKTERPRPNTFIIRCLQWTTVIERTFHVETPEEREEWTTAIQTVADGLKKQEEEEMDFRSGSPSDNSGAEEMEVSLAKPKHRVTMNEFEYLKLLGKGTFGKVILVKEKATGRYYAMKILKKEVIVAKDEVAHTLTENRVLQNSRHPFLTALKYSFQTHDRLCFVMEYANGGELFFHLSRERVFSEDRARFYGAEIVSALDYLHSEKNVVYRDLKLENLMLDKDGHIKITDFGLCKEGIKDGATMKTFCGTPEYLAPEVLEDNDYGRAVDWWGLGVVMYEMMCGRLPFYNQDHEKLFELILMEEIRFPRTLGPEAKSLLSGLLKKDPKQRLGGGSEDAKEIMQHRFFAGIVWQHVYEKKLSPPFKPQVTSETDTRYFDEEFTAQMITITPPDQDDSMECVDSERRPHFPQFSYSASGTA

[5] = molecular target: T2, Inhibitor of nuclear factor kappa-B kinase subunit alpha (Homo sapiens, UniProt O15111); assay: Inhibition of IKKalpha (unknown origin)
T2 sequence (O15111 whole entry): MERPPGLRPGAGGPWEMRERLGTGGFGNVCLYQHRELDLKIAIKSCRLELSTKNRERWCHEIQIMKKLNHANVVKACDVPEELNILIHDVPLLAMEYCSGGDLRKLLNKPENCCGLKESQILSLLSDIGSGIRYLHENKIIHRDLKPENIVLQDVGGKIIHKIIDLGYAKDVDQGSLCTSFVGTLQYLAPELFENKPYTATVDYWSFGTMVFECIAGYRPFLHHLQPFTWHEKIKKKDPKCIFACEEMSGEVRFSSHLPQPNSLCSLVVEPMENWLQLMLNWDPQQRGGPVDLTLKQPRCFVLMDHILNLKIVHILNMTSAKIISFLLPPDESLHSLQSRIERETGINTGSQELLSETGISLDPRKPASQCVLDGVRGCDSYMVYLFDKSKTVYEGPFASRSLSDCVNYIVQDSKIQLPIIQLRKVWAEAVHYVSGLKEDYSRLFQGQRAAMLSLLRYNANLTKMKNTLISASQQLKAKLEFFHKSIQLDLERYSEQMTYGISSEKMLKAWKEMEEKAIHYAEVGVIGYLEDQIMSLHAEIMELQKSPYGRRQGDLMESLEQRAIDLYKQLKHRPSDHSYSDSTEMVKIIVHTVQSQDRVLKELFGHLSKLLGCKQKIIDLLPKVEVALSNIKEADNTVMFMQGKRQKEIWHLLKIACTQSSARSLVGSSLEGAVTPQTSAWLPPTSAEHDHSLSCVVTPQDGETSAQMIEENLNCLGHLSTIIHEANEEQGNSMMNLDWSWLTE

T47D = assay: Cytotoxicity against human T47D cells assessed as reduction in cell viability after 48 hrs by MTT assay; assay type: functional, cell-based
MCF7 [6] = assay: Cytotoxicity against human MCF7 cells assessed as reduction in cell viability after 48 hrs by MTT assay; assay type: functional, cell-based; settings: MCF7, 48 h
MDA-MB-231 = assay: Cytotoxicity against human MDA-MB-231 cells assessed as reduction in cell viability after 48 hrs by MTT assay; assay type: functional, cell-based; settings: MDA-MB-231, 48 h
MCF7 [7] = assay: Cytotoxicity against human MCF7 cells assessed as reduction in cell viability after 72 hrs by MTT assay; assay type: functional, cell-based; settings: MCF7, 72 h
A 172 = assay: Cytotoxicity against human A172 cells assessed as reduction in cell viability after 72 hrs by MTT assay; assay type: functional, cell-based; settings: A 172, 72 h
KB = assay: Cytotoxicity against human KB cells assessed as reduction in cell viability after 72 hrs by MTT assay; assay type: functional, cell-based
ACHN = assay: Cytotoxicity against human ACHN cells assessed as reduction in cell viability after 72 hrs by MTT assay; assay type: functional, cell-based
A549 [8] = assay: Cytotoxicity against human A549 cells assessed as reduction in cell viability after 72 hrs by MTT assay; assay type: functional, cell-based; settings: A549, 72 h
SK-MEL3 = assay: Cytotoxicity against human SK-MEL-3 cells assessed as reduction in cell viability after 72 hrs by MTT assay; assay type: functional, cell-based; settings: SK-MEL3, 72 h
A2780 = assay: Cytotoxicity against human A2780 cells assessed as reduction in cell viability after 72 hrs by MTT assay; assay type: functional, cell-based; settings: A2780, 72 h
A549 [9] = assay: Cytotoxicity against human A549 cells assessed as reduction in cell viability; assay type: functional, cell-based
MCF7 [10] = assay: Cytotoxicity against human MCF7 cells assessed as reduction in cell viability; assay type: functional, cell-based

Sequence of RAC-beta serine/threonine-protein kinase (P31751 whole entry): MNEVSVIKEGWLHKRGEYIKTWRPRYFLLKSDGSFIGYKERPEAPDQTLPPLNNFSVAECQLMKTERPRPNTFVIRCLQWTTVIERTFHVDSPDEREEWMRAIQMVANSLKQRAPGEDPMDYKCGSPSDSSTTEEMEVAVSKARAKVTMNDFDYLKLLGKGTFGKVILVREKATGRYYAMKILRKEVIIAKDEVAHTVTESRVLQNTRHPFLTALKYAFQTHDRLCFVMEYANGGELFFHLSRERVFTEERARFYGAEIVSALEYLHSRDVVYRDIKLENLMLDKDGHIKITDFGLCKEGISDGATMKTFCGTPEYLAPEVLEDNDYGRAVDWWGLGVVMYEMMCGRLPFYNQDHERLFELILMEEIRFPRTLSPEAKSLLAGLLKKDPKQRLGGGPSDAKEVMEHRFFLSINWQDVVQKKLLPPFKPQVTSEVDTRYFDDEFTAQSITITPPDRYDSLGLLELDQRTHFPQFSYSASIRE
Sequence of RAC-gamma serine/threonine-protein kinase (Q9Y243 whole entry): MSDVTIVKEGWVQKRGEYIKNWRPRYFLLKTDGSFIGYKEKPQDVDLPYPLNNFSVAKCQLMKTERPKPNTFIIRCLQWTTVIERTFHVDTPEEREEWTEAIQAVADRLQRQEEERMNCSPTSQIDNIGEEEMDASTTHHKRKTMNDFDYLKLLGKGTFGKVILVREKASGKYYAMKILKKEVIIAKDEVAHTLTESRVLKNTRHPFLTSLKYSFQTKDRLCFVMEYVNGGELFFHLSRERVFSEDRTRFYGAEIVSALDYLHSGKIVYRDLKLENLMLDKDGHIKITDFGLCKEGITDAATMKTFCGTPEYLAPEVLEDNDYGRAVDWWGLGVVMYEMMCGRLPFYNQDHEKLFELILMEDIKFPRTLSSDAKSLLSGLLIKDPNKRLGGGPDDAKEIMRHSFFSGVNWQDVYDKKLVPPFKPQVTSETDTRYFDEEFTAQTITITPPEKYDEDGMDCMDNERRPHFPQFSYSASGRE

In the case of `Cc1ccc2[nH]c(/C=C/C(=O)c3c(-c4ccccc4)c4cc(Cl)ccc4[nH]c3=O)nc2c1`, the IC50 [1] is reported as 1.64 to 44.5 µM, the IC50 [2] is reported as 1.64 to 44.5 µM and the IC50 [3] is reported as 1.64 to 44.5 µM. For the same molecule, the IC50 [4] was 1.64 to 44.5 µM and the IC50 [5] was 1.64 to 44.5 µM.
`O=C(/C=C/c1nc2ccccc2[nH]1)c1c(-c2ccccc2)c2ccccc2[nH]c1=O` showed an IC50 [1] of 1.64 to 44.5 µM, an IC50 [2] of 1.64 to 44.5 µM and an IC50 [3] of 1.64 to 44.5 µM. It also gave an IC50 [4] of 1.64 to 44.5 µM and an IC50 [5] of 1.64 to 44.5 µM.
In the case of `COc1cc(Cn2cc(Cn3c4ccccc4c(=O)c4cc(Br)ccc43)nn2)cc(OC)c1OC`, the IC50 (T47D) is reported as > 100 µM, the IC50 (MCF7 [6]) is reported as > 100 µM and the IC50 (MDA-MB-231) is reported as > 100 µM.
In the case of `CCn1cc(C(=O)O)c(=O)c2cc(F)c(N3CCN(C/C(=N/OC)c4ccco4)CC3)cc21`, the IC50 (MCF7 [7]) is reported as > 100 µM, the IC50 (A 172) is reported as > 100 µM and the IC50 (KB) is reported as > 100 µM. The IC50 (ACHN) was > 100 µM, the IC50 (A549 [8]) was > 100 µM and the IC50 (SK-MEL3) was > 100 µM. The IC50 (A2780) was > 100 µM.
Molecule `Cn1c(=O)c(C(=O)/C=C/c2nc3cc(F)ccc3[nH]2)c(-c2ccccc2)c2cc(Cl)ccc21` has an IC50 [1] of 1.64 to 44.5 µM, an IC50 [2] of 1.64 to 44.5 µM and an IC50 [3] of 1.64 to 44.5 µM. For the same molecule, the IC50 [4] was 1.64 to 44.5 µM and the IC50 [5] was 1.64 to 44.5 µM.
For `COc1cc(Cn2cc(Cn3c4ccccc4c(=O)c4cccc(F)c43)nn2)cc(OC)c1OC`, the IC50 (T47D) was > 100 µM, the IC50 (MCF7 [6]) was > 100 µM and the IC50 (MDA-MB-231) was > 100 µM.
In the case of `CCn1cc(C(=O)O)c(=O)c2cc(F)c(N3CCN(C/C(=N/O)c4ccco4)CC3)cc21`, the IC50 (MCF7 [7]) is reported as > 100 µM, the IC50 (A 172) is reported as > 100 µM and the IC50 (KB) is reported as > 100 µM. For the same molecule, the IC50 (ACHN) was > 100 µM, the IC50 (A549 [8]) was > 100 µM and the IC50 (SK-MEL3) was > 100 µM. The IC50 (A2780) was > 100 µM.
`O=C(/C=C(O)/C=C/c1cc2ccccc2[nH]c1=O)/C=C/c1cc2ccccc2[nH]c1=O` showed an IC50 (A549 [9]) of 31.5 µM and an IC50 (MCF7 [10]) of 69.1 µM.
In the case of `COc1cc(Cn2cc(Cn3c4ccccc4c(=O)c4cccc(OC)c43)nn2)cc(OC)c1OC`, the IC50 (T47D) is reported as > 100 µM, the IC50 (MCF7 [6]) is reported as > 100 µM and the IC50 (MDA-MB-231) is reported as > 100 µM.
With `O=C(O)c1cn(C2CC2)c2cc(N3CCN(C/C(=N/O)c4ccco4)CC3)c(F)cc2c1=O` the IC50 (MCF7 [7]) was > 100 µM, the IC50 (A 172) was > 100 µM and the IC50 (KB) was > 100 µM. The IC50 (ACHN) was > 100 µM, the IC50 (A549 [8]) was > 100 µM and the IC50 (SK-MEL3) was > 100 µM. For the same molecule, the IC50 (A2780) was > 100 µM.
For `O=C(/C=C/c1nc2cc(F)ccc2[nH]1)c1c(-c2ccc(F)cc2)c2cc(F)ccc2[nH]c1=O`, the IC50 [1] was 1.64 to 44.5 µM, the IC50 [2] was 1.64 to 44.5 µM and the IC50 [3] was 1.64 to 44.5 µM. For the same molecule, the IC50 [4] was 1.64 to 44.5 µM and the IC50 [5] was 1.64 to 44.5 µM.
Work on `O=C(/C=C/c1nc2cc(F)c(F)cc2[nH]1)c1c(-c2ccc(F)cc2)c2cc(Cl)ccc2[nH]c1=O` yielded an IC50 [1] of 1.64 to 44.5 µM, an IC50 [2] of 1.64 to 44.5 µM and an IC50 [3] of 1.64 to 44.5 µM. For the same molecule, the IC50 [4] was 1.64 to 44.5 µM and the IC50 [5] was 1.64 to 44.5 µM.
For `O=C(/C=C/c1nc2cc(F)ccc2[nH]1)c1c(-c2ccccc2)c2cc(Cl)ccc2[nH]c1=O`, the IC50 [1] was 1.64 to 44.5 µM, the IC50 [2] was 1.64 to 44.5 µM and the IC50 [3] was 1.64 to 44.5 µM. For the same molecule, the IC50 [4] was 1.64 to 44.5 µM and the IC50 [5] was 1.64 to 44.5 µM.
With `CCn1cc(C(=O)O)c(=O)c2cc(F)c(N3CCN(C/C(=N/OCc4ccccc4)c4ccco4)CC3)cc21` the IC50 (MCF7 [7]) was ≤ 10 µM, the IC50 (A 172) was ≤ 10 µM and the IC50 (KB) was ≤ 10 µM. For the same molecule, the IC50 (ACHN) was ≤ 10 µM, the IC50 (A549 [8]) was ≤ 10 µM and the IC50 (SK-MEL3) was ≤ 10 µM. The IC50 (A2780) was ≤ 10 µM.
`O=C(/C=C/c1nc2ccccc2[nH]1)c1c(O)nc2ccc(Cl)cc2c1-c1ccccc1` was tested, and the IC50 [1] was 1.64 to 44.5 µM, the IC50 [2] was 1.64 to 44.5 µM and the IC50 [3] was 1.64 to 44.5 µM. For the same molecule, the IC50 [4] was 1.64 to 44.5 µM and the IC50 [5] was 1.64 to 44.5 µM.
